In article PMC10893631, “Receptor-based pharmacophore modeling, molecular docking, synthesis and biological evaluation of novel VEGFR-2, FGFR-1, and BRAF multi-kinase inhibitors” (BMC Chemistry, 2024):

Legend:
Test in all cases: NCI SRB growth inhibition (single dose 10 µM / five-dose)
Type in all cases: cell-based, human
[1] = test system: SW-620; conditions: Homo sapiens; SW-620 (Colon cancer), 10 µM; read-out: GI%
Experimental: (§1) Screening of cytotoxic activity against a panel of sixty human tumor cell lines The selected compounds by NCI were evaluated for their anticancer activity in a two- stage process. […] Then, the output from the single dose screen is reported as a mean graph. […] Assay protocol. […] For a typical screening experiment, cells are inoculated into 96 well microtiter plates in 100 µL at plating densities ranging from 5000 to 40,000 cells/well depending on the doubling time of individual cell lines. […] After 24 h, two plates of each cell line are fixed in situ with TCA, to represent a measurement of the cell population for each cell line at the time of drug addition (Tz). The experimental drugs are solubilized in dimethyl sulfoxide at 400-fold the desired final maximum test concentration and stored frozen prior to use. At the time of drug addition, an aliquot of frozen concentrate is thawed and diluted to twice the desired final maximum test concentration with complete medium containing 50 µg/mL gentamicin. Additional four, 10-fold or ½ log serial dilutions are made to provide a total of five drug concentrations plus control. Aliquots of 100 mL of these different drug dilutions are added to the appropriate microtiter wells already containing […] of medium, resulting in the required final drug concentrations. […] For adherent cells, the assay is terminated by the addition of cold TCA. […] The supernatant is discarded, and the plates are washed five times with tap water and air dried. Sulforhodamine B (SRB) solution ([…]) at 0.4% (w/v) in 1% acetic acid is added to each well, and plates are incubated for 10 min at room temperature. After staining, unbound dye is removed by washing five times with 1% acetic acid and the plates are air dried. […] Using the seven absorbance measurements [time zero, (Tz), control growth, (C), and test growth in the presence of drug at the five concentration levels (Ti)], the percentage growth is calculated at each of the drug concentrations levels. Percentage growth inhibition is calculated as: [(Ti Tz)/(C–Tz)] x 100 for concentrations for which Ti>/=Tz and [(Ti-Tz)/Tz] x 100 for concentrations for which Ti < Tz. Three dose response parameters are calculated for each experimental agent. […] The drug concentration resulting in total growth inhibition (TGI) is calculated from Ti = Tz. […] Values are calculated for each of these three parameters if the level of activity is reached; however, if the effect is not reached or is exceeded, the value for that parameter is expressed as greater or less than the maximum or minimum concentration tested.

[2] = test system: OVCAR-8; conditions: Homo sapiens; OVCAR-8 (Ovarian cancer), 10 µM; read-out: GI%
Experimental: as §1

[3] = test system: SF-268; conditions: Homo sapiens; SF-268 (CNS cancer), 10 µM; read-out: GI%
Experimental: as §1

[4] = test system: MDA-MB-231/ATCC; conditions: Homo sapiens; MDA-MB-231/ATCC (Breast cancer), 10 µM; read-out: GI%
Experimental: as §1

[5] = test system: M14; conditions: Homo sapiens; M14 (Melanoma), 10 µM; read-out: GI%
Experimental: as §1

[6] = test system: KM12; conditions: Homo sapiens; KM12 (Colon cancer), 10 µM; read-out: GI%
Experimental: as §1

[7] = test system: SK-OV-3; conditions: Homo sapiens; SK-OV-3 (Ovarian cancer), 10 µM; read-out: GI%
Experimental: as §1

[8] = test system: TK-10; conditions: Homo sapiens; TK-10 (Renal cancer), 10 µM; read-out: GI%
Experimental: as §1

[9] = test system: MDA-MB-468; conditions: Homo sapiens; MDA-MB-468 (Breast cancer), 10 µM; read-out: GI%
Experimental: as §1

[10] = test system: 786–0; conditions: Homo sapiens; 786–0 (Renal cancer), 10 µM; read-out: GI%
Experimental: as §1

[11] = test system: RXF 393; conditions: Homo sapiens; RXF 393 (Renal cancer), 10 µM; read-out: GI%
Experimental: as §1

[12] = test system: SF-295; conditions: Homo sapiens; SF-295 (CNS cancer), 10 µM; read-out: GI%
Experimental: as §1

[13] = test system: SR; conditions: Homo sapiens; SR (Leukemia), 10 µM; read-out: GI%
Experimental: as §1

[14] = test system: UACC-62; conditions: Homo sapiens; UACC-62 (Melanoma), 10 µM; read-out: GI%
Experimental: as §1

[15] = test system: NCI-H460; conditions: Homo sapiens; NCI-H460 (Non-small cell lung cancer), 10 µM; read-out: GI%
Experimental: as §1

[16] = test system: BT-549; conditions: Homo sapiens; BT-549 (Breast cancer), 10 µM; read-out: GI%
Experimental: as §1

[17] = test system: CAKI-1; conditions: Homo sapiens; CAKI-1 (Renal cancer), 10 µM; read-out: GI%
Experimental: as §1

[18] = test system: HS 578 T; conditions: Homo sapiens; HS 578 T (Breast cancer), 10 µM; read-out: GI%
Experimental: as §1

[19] = test system: MCF7; conditions: Homo sapiens; MCF7 (Breast cancer), 10 µM; read-out: GI%
Experimental: as §1

[20] = test system: SK-MEL-28; conditions: Homo sapiens; SK-MEL-28 (Melanoma), 10 µM; read-out: GI%
Experimental: as §1

[21] = test system: A549/ATCC; conditions: Homo sapiens; A549/ATCC (Non-small cell lung cancer), 10 µM; read-out: GI%
Experimental: as §1

[22] = test system: MDA-MB-435; conditions: Homo sapiens; MDA-MB-435 (Melanoma), 10 µM; read-out: GI%
Experimental: as §1

[23] = test system: EKVX; conditions: Homo sapiens; EKVX (Non-small cell lung cancer), 10 µM; read-out: GI%
Experimental: as §1

[24] = test system: SF-539; conditions: Homo sapiens; SF-539 (CNS cancer), 10 µM; read-out: GI%
Experimental: as §1

[25] = test system: CCRF-CEM; conditions: Homo sapiens; CCRF-CEM (Leukemia), 10 µM; read-out: GI%
Experimental: as §1

SMILES | inhibition at 10 µM [1] | inhibition at 10 µM [2] | inhibition at 10 µM [3] | inhibition at 10 µM [4] | inhibition at 10 µM [5] | inhibition at 10 µM [6] | inhibition at 10 µM [7] | inhibition at 10 µM [8] | inhibition at 10 µM [9] | inhibition at 10 µM [10] | inhibition at 10 µM [11] | inhibition at 10 µM [12] | inhibition at 10 µM [13] | inhibition at 10 µM [14] | inhibition at 10 µM [15] | inhibition at 10 µM [16] | inhibition at 10 µM [17] | inhibition at 10 µM [18] | inhibition at 10 µM [19] | inhibition at 10 µM [20] | other results
O=C(NN=Cc1cccc(O)c1)c1ccc2[nH]c(-c3ccccc3)nc2c1 [8b, N'-(3-Hydroxybenzylidene)-2-phenyl-1H-benzo[d]imidazole-5-carbohydrazide] | < 5% | 10.3% | 16.8% | 14.1% | < 5% | 19.8% | 25.6% | < 5% | 18.9% | 5.43% | < 5% | < 5% | 36.8% | < 5% | < 5% | < 5% | 9.41% | < 5% | 43.1% | < 5% | inhibition at 10 µM [21]: < 5%; inhibition at 10 µM [22]: 5.45%; inhibition at 10 µM [23]: 13.8%; inhibition at 10 µM [24]: 13.7%; inhibition at 10 µM [25]: 54.4%
COc1cccc(C=NNC(=O)c2ccc3[nH]c(-c4ccccc4)nc3c2)c1 [8c, N'-(3-Methoxybenzylidene)-2-phenyl-1H-benzo[d]imidazole-5-carbohydrazide] | < 5% | 24.5% | 15.1% | < 5% | 8.28% | 26% | 64% | < 5% | 22.7% | 21.3% | 29.2% | 18.5% | 36.3% | 14.7% | 13.1% | < 5% | 10% | 20% | 51% | 20.4% | inhibition at 10 µM [21]: 20.1%; inhibition at 10 µM [22]: 18.9%; inhibition at 10 µM [23]: 41.8%; inhibition at 10 µM [24]: 28.6%; inhibition at 10 µM [25]: 44.5%
COc1ccc(C=NNC(=O)c2ccc3[nH]c(-c4ccccc4)nc3c2)cc1O [8e, N'-(3-Hydroxy-4-methoxybenzylidene)-2-phenyl-1H-benzo[d]imidazole-5-carbohydrazide] | < 5% | 25.2% | 16% | < 5% | 19.7% | 21.9% | 56.3% | < 5% | 7.65% | 16.6% | < 5% | 10.9% | 44.1% | 18.7% | < 5% | < 5% | 17.6% | 6.89% | 70.5% | 28.9% | inhibition at 10 µM [21]: < 5%; inhibition at 10 µM [22]: 30.4%; inhibition at 10 µM [23]: 19.2%; inhibition at 10 µM [24]: 32.2%; inhibition at 10 µM [25]: 35.9%
COc1ccc(-c2nc3cc(C(=O)NN=Cc4cccc(O)c4)ccc3[nH]2)cc1 [8i, N'-(3-Hydroxybenzylidene)-2-(4-methoxyphenyl)-1H-benzo[d]imidazole-5-carbohydrazide] | 6.72% | 38.1% | 37.4% | 22.4% | 39.1% | 38.7% | 54% | < 5% | 54.6% | 23.4% | 14.5% | 22% | 81.9% | 50.8% | 5.05% | 32.7% | 5.16% | 52.6% | 88.2% | 52.9% | inhibition at 10 µM [21]: 11.2%; inhibition at 10 µM [22]: 63.8%; inhibition at 10 µM [23]: 23.4%; inhibition at 10 µM [24]: 53.3%; inhibition at 10 µM [25]: 80.8%
COc1ccc(-c2nc3cc(C(=O)NN=Cc4cc(OC)ccc4OC)ccc3[nH]2)cc1 [8m, N'-(2,5-Dimethoxybenzylidene)-2-(4-methoxyphenyl)-1H-benzo[d]imidazole-5-carbohydrazide] | < 5% | 23.6% | 9.02% | 14.3% | < 5% | 11.7% | < 5% | < 5% | 16.2% | 29% | 15.2% | 19.9% | 28.5% | 6.39% | < 5% | 17.2% | < 5% | < 5% | 20.6% | 5.7% | inhibition at 10 µM [21]: 13.7%; inhibition at 10 µM [22]: < 5%; inhibition at 10 µM [23]: 10.6%; inhibition at 10 µM [24]: 32.6%; inhibition at 10 µM [25]: 45.9%
